Measurements reported in patent publication US10487093B2, “Heterocyclic compounds, in particular 2-oxo-4,4,5,5,6,6,7,7-octahydrobenzoxazole derivatives, and their use as antibacterial compounds” (priority 2016, dated 2019).
In brackets after ≈: the same amount, converted by molar mass. Where two headings read alike, the source gives them in different places.

Legend:
[1] = test system: Streptococcus pneumoniae ATCC 49619; test: MIC, broth microdilution (CLSI) versus planktonic bacteria; assay type: cell-based
[2] = test system: Enterobacter cloacae NCTC 13406; test: as above; assay type: cell-based
[3] = test system: Haemophilus influenzae ATCC 49247; test: as above; assay type: cell-based
[4] = test system: Escherichia coli ATCC 25922; test: as above; assay type: cell-based
[5] = test system: Staphylococcus aureus ATCC 29213; test: as above; assay type: cell-based
[6] = test system: human hepatic cell line (HepG2 ATCC HB-8065); test: Human cell viability assay (CellTiter-Glo); conditions: Homo sapiens, HepG2, 24 h, read-out: IC50 (μg/mL) HepG2
[7] = test system: Pseudomonas aeruginosa ATCC 27853; test: MIC, broth microdilution (CLSI) versus planktonic bacteria; assay type: cell-based
[8] = test system: Acinetobacter baumannii NCTC 13420; test: as above; assay type: cell-based
[9] = ATCC49619, Streptococcus pneumoniae ATCC 49619, 16-20 h, mode of three independent experiments, read-out: MIC, Sp ATCC 49619
[10] = NCTC13406, Enterobacter cloacae NCTC 13406, 16-20 h, mode of three independent experiments, read-out: MIC, Ecl NCTC 13406
[11] = ATCC49247, Haemophilus influenzae ATCC 49247, 16-20 h, mode of three independent experiments, read-out: MIC, Hi ATCC 49247
[12] = ATCC25922, Escherichia coli ATCC 25922, 16-20 h, mode of three independent experiments, read-out: MIC, Ec ATCC 25922
[13] = ATCC29213, Staphylococcus aureus ATCC 29213, 16-20 h, mode of three independent experiments, read-out: MIC, Sa ATCC 29213
[14] = ATCC27853, Pseudomonas aeruginosa ATCC 27853, 16-20 h, mode of three independent experiments, read-out: MIC, Pa ATCC 27853
[15] = NCTC13420, Acinetobacter baumannii NCTC 13420, 16-20 h, mode of three independent experiments, read-out: MIC, Ab NCTC 13420
[16] = Streptococcus pneumoniae, ATCC49619, read-out: MIC, Sp ATCC 49619
[17] = Enterobacter cloacae, NCTC13406, read-out: MIC, Ecl NCTC 13406
[18] = Haemophilus influenzae, ATCC49247, read-out: MIC, Hi ATCC 49247
[19] = Escherichia coli, ATCC25922, read-out: MIC, Ec ATCC 25922
[20] = Staphylococcus aureus, ATCC29213, read-out: MIC, Sa ATCC 29213
[21] = Pseudomonas aeruginosa, ATCC27853, read-out: MIC, Pa ATCC 27853
[22] = Acinetobacter baumannii, NCTC13420, read-out: MIC, Ab NCTC 13420

Row | SMILES | MIC [1, 9] [mg/L] | MIC [2, 10] [mg/L] | MIC [3, 11] [mg/L] | MIC [4, 12] [mg/L] | MIC [5, 13] [mg/L] | IC50 [6] [µg/mL] | MIC [7, 14] [mg/L] | MIC [8, 15] [mg/L] | MIC [1, 16] [mg/L] | MIC [2, 17] [mg/L] | MIC [3, 18] [mg/L] | MIC [4, 19] [mg/L] | MIC [5, 20] [mg/L] | MIC [7, 21] [mg/L] | MIC [8, 22] [mg/L]
1 | O=C1COc2cnc(N3C(=O)O[C@H]4C[C@@H](NCCn5c(=O)cnc6cc(F)c(F)cc65)CC[C@@H]43)nc2N1 [Compound 66, 1-(2-{[(3aS,6S,7aS)-2-oxo-3-{7-oxo-6H,7H,8H-pyrimido[5,4-b][1,4]oxazin-2-yl}-octahydro-1,3-benzoxazol-6-yl]amino}ethyl)-6,7-difluoro-1,2-dihydroquinoxalin-2-one] | < 1 | 10 to 100 (≈ 19.5 to 195 µM) | 1 to 10 (≈ 1.95 to 19.5 µM) | 1 to 10 (≈ 1.95 to 19.5 µM) | < 1 | > 100 | > 100 | 1 to 10 (≈ 1.95 to 19.5 µM) | – | – | – | – | – | – | –
2 | Cn1ccc(-c2ccc3ccc(=O)n(CCN[C@H]4CC[C@H]5[C@H](C4)OC(=O)N5c4ccc5c(n4)NC(=O)CO5)c3c2)n1 [Compound 104, 1-(2-{[(3aS,6S,7aS)-2-oxo-3-{3-oxo-2H,3H,4H-pyrido[3,2-b][1,4]oxazin-6-yl}-octahydro-1,3-benzoxazol-6-yl]amino}ethyl)-7-(1-methyl-1H-pyrazol-3-yl)-1,2-dihydroquinolin-2-one] | < 1 | 1 to 10 (≈ 1.8 to 18 µM) | < 1 | 1 to 10 (≈ 1.8 to 18 µM) | < 1 | 10 to 100 (≈ 18 to 180 µM) | 10 to 100 (≈ 18 to 180 µM) | < 1 | – | – | – | – | – | – | –
3 | COc1cnc2ccc(=O)n(CCN(C)[C@H]3CC[C@H]4[C@@H](C3)OC(=O)N4c3ccc4c(n3)NC(=O)CO4)c2c1 [Compound 51, 1-(2-{[(3aS,6S,7aR)-2-oxo-3-{3-oxo-2H,3H,4H-pyrido[3,2-b][1,4]oxazin-6-yl}-octahydro-1,3-benzoxazol-6-yl](methyl)amino}ethyl)-7-methoxy-1,2-dihydro-1,5-naphthyridin-2-one] | < 1 | 1 to 10 (≈ 1.92 to 19.2 µM) | < 1 | 1 to 10 (≈ 1.92 to 19.2 µM) | < 1 | > 100 | 1 to 10 (≈ 1.92 to 19.2 µM) | 1 to 10 (≈ 1.92 to 19.2 µM) | – | – | – | – | – | – | –
4 | COc1ccc2ccc(=O)n(CCN[C@@H]3CC[C@@H]4[C@@H](C3)OC(=O)N4c3cc4c(nn3)OCCO4)c2n1 [Compound 49, 1-(2-{[(3aR,6R,7aR)-3-{6H,7H-[1,4]dioxino[2,3-c]pyridazin-3-yl}-2-oxo-octahydro-1,3-benzoxazol-6-yl]amino}ethyl)-7-methoxy-1,2-dihydro-1,8-naphthyridin-2-one] | < 1 | > 100 | 10 to 100 (≈ 20.2 to 202 µM) | 10 to 100 (≈ 20.2 to 202 µM) | < 1 | > 100 | 10 to 100 (≈ 20.2 to 202 µM) | 10 to 100 (≈ 20.2 to 202 µM) | – | – | – | – | – | – | –
5 | COc1ccc2ccc(=O)n(CCN[C@H]3CC[C@H]4[C@@H](C3)OC(=O)N4c3ncc4c(n3)NC(=O)CO4)c2n1 [Compound 16] | < 1 | 1 to 10 (≈ 1.97 to 19.7 µM) | < 1 | < 1 | < 1 | > 100 | 1 to 10 (≈ 1.97 to 19.7 µM) | 1 to 10 (≈ 1.97 to 19.7 µM) | – | – | – | – | – | – | –
6 | N#Cc1ccc(-c2cccc(CN[C@H]3CC[C@H]4[C@H](C3)OC(=O)N4c3ccc4c(n3)NC(=O)CO4)c2)nc1 [Compound 71, 6-[3-({[(3aS,6S,7aS)-2-oxo-3-{3-oxo-2H,3H,4H-pyrido[3,2-b][1,4]oxazin-6-yl}-octahydro-1,3-benzoxazol-6-yl]amino}methyl)phenyl]pyridine-3-carbonitrile] | 1 to 10 (≈ 2.01 to 20.1 µM) | 1 to 10 (≈ 2.01 to 20.1 µM) | 1 to 10 (≈ 2.01 to 20.1 µM) | < 1 | < 1 | 10 to 100 (≈ 20.1 to 201 µM) | 10 to 100 (≈ 20.1 to 201 µM) | 1 to 10 (≈ 2.01 to 20.1 µM) | – | – | – | – | – | – | –
7 | CN(CCn1c(=O)ccc2ccc(OCCN)cc21)[C@@H]1CC[C@@H]2[C@@H](C1)OC(=O)N2c1ccc2c(n1)NC(=O)CO2 [Compound 54] | < 1 | 1 to 10 (≈ 1.82 to 18.2 µM) | 1 to 10 (≈ 1.82 to 18.2 µM) | < 1 | < 1 | > 100 | 1 to 10 (≈ 1.82 to 18.2 µM) | 1 to 10 (≈ 1.82 to 18.2 µM) | – | – | – | – | – | – | –
8 | NCCOc1ccc2ccc(=O)n(CCN[C@H]3CC[C@H]4[C@H](C3)OC(=O)N4c3ccc4c(n3)NC(=O)CO4)c2c1 [Compound 75, (3aS,6S,7aS)—N-{2-[7-(2-azaniumylethoxy)-2-oxo-1,2-dihydroquinolin-1-yl]ethyl}-2-oxo-3-{3-oxo-2H,3H,4H-pyrido[3,2-b][1,4]oxazin-6-yl}-octahydro-1,3-benzoxazol-6-aminium dichloride] | – | – | – | – | – | > 100 | – | – | < 1 | 1 to 10 | 10 to 100 | < 1 | 1 to 10 | 1 to 10 | > 100
9 | O=C1COc2ccc(N3C(=O)O[C@@H]4C[C@@H](NCCn5c(=O)cnc6ccc(F)cc65)CC[C@@H]43)nc2N1 [Compound 26, 1-(2-{[(3aS,6S,7aR)-2-oxo-3-{3-oxo-2H,3H,4H-pyrido[3,2-b][1,4]oxazin-6-yl}-octahydro-1,3-benzoxazol-6-yl]amino}ethyl)-7-fluoro-1,2-dihydroquinoxalin-2-one] | < 1 | 1 to 10 (≈ 2.02 to 20.2 µM) | < 1 | < 1 | < 1 | > 100 | 1 to 10 (≈ 2.02 to 20.2 µM) | < 1 | – | – | – | – | – | – | –
10 | COc1ccc2ccc(=O)n(CCN[C@H]3CC[C@H]4[C@H](C3)OC(=O)N4c3ccc4c(n3)NC(=O)C(C)(C)O4)c2n1 [Compound 48, 1-(2-{[(3aS,6S,7aS)-3-{2,2-dimethyl-3-oxo-2H,3H,4H-pyrido[3,2-b][1,4]oxazin-6-yl}-2-oxo-octahydro-1,3-benzoxazol-6-yl]amino}ethyl)-7-methoxy-1,2-dihydro-1,8-naphthyridin-2-one] | < 1 | 10 to 100 (≈ 18.7 to 187 µM) | 1 to 10 (≈ 1.87 to 18.7 µM) | 1 to 10 (≈ 1.87 to 18.7 µM) | < 1 | > 100 | 10 to 100 (≈ 18.7 to 187 µM) | < 1 | – | – | – | – | – | – | –
11 | COc1ccc2ccc(=O)n(CCN(C(=O)CN)[C@H]3CC[C@H]4[C@H](C3)OC(=O)N4c3ccc4c(n3)NC(=O)CO4)c2n1 [Compound 78, {[(3aS,6S,7aS)-2-oxo-3-{3-oxo-2H,3H,4H-pyrido[3,2-b][1,4]oxazin-6-yl}-octahydro-1,3-benzoxazol-6-yl][2-(7-methoxy-2-oxo-1,2-dihydro-1,8-naphthyridin-1-yl)ethyl]carbamoyl}methanaminium chloride] | – | – | – | – | – | > 100 | – | – | < 1 | > 100 | 10 to 100 | 1 to 10 | < 1 | 1 to 10 | 10 to 100
12 | N#Cc1cnc2ccc(=O)n(CCN[C@@H]3CC[C@@H]4[C@@H](C3)OC(=O)N4c3ccc4c(n3)NC(=O)CO4)c2c1 [Compound 50, 5-(2-{[(3aR,6R,7aR)-2-oxo-3-{3-oxo-2H,3H,4H-pyrido[3,2-b][1,4]oxazin-6-yl}-octahydro-1,3-benzoxazol-6-yl]amino}ethyl)-6-oxo-5,6-dihydro-1,5-naphthyridine-3-carbonitrile] | < 1 | 1 to 10 (≈ 1.99 to 19.9 µM) | < 1 | < 1 | < 1 | > 100 | < 1 | 1 to 10 (≈ 1.99 to 19.9 µM) | – | – | – | – | – | – | –
